Laboratory results from ChEMBL document CHEMBL3045444, “Synthesis of Stereoisomers of Ipconazole and Their Fungicidal and Plant Growth Inhibitory Activities” (J Pestic Sci, 1997).
Converted amounts (≈) assume the structure as drawn.

Key:
Bipolaris oryzae [1] = assay: Antifungal activity against Bipolaris oryzae after 3 days; type: functional, organism-based
Fusarium fujikuroi [2] = assay: Antifungal activity against Fusarium fujikuroi after 3 days; type: functional, organism-based
Pyricularia oryzae = assay: Antifungal activity against Magnaporthe oryzae after 3 days; type: functional, organism-based
Fusarium fujikuroi [3] = assay: Antifungal activity against Fusarium fujikuroi infected in rice plant assessed as control of bakanae disease at 75 ug/ml treated as seed treatment after 2 weeks; type: functional
Fusarium fujikuroi [4] = assay: Antifungal activity against Fusarium fujikuroi infected in rice plant assessed as control of bakanae disease at 18 ug/ml treated as seed treatment after 2 weeks; type: functional
Bipolaris oryzae [5] = assay: Antifungal activity against Bipolaris oryzae infected in fifth-leaf stage of rice plant assessed as control of brown spot disease at 38 ug/ml treated as foliar application after 6 days; type: functional
Oryza sativa = assay: Growth inhibition of Oryza sativa (rice) assessed as growth rate by measuring first sheath length at 250 ug/ml treated as seed treatment 24 hr before emergence measured after 10 days relative to control; type: organism-based; parameters: scale not given: the % may be the effect or the level left; settings: in vivo, 240 h
Fusarium fujikuroi [6] = assay: Antifungal activity against Fusarium fujikuroi infected in rice plant assessed as control of bakanae disease at 300 ug/ml treated as seed treatment after 2 weeks; type: functional
Bipolaris oryzae [7] = assay: Antifungal activity against Bipolaris oryzae infected in fifth-leaf stage of rice plant assessed as control of brown spot disease at 9 ug/ml treated as foliar application after 6 days; type: functional
Bipolaris oryzae [8] = assay: Antifungal activity against Bipolaris oryzae infected in fifth-leaf stage of rice plant assessed as control of brown spot disease at 150 ug/ml treated as foliar application after 6 days; type: functional
[9] = Bipolaris oryzae, 72 h, read-out: EC50
[10] = Fusarium fujikuroi, 72 h, read-out: EC50
[11] = Pyricularia oryzae, 72 h, read-out: EC50

Structure (SMILES)	EC50 (Bipolaris oryzae [1]; [9]) [µg/mL]	EC50 (Fusarium fujikuroi [2]; [10]) [µg/mL]	EC50 (Pyricularia oryzae; [11]) [µg/mL]	EC50 (Pyricularia oryzae) [µg/mL]	Activity (Fusarium fujikuroi [3]) [%]	EC50 (Bipolaris oryzae [1]) [µg/mL]	Activity (Fusarium fujikuroi [4]) [%]	Activity (Bipolaris oryzae [5]) [%]	EC50 (Fusarium fujikuroi [2]) [µg/mL]	Activity (Oryza sativa) [%]	Activity (Fusarium fujikuroi [6]) [%]	Activity (Bipolaris oryzae [7]) [%]	Activity (Bipolaris oryzae [8]) [%]
CC(C)[C@@H]1CC[C@H](Cc2ccc(Cl)cc2)[C@@]1(O)Cn1cncn1	0.2 (≈ 0.599 µM)	0.03 (≈ 0.0899 µM)	0.04 (≈ 0.12 µM)										
CC(C)[C@H]1CC[C@H](Cc2ccc(Cl)cc2)[C@@]1(O)Cn1cncn1	0.2 (≈ 0.599 µM)	0.03 (≈ 0.0899 µM)		0.01 (≈ 0.03 µM)									
CC(C)[C@H]1CC[C@@H](Cc2ccc(Cl)cc2)[C@]1(O)Cn1cncn1	6 (≈ 18 µM)	10 (≈ 30 µM)	1 (≈ 3 µM)										
CC(C)[C@@H]1CC[C@@H](Cc2ccc(Cl)cc2)[C@]1(O)Cn1cncn1	3 (≈ 8.99 µM)	6 (≈ 18 µM)	0.7 (≈ 2.1 µM)										
CC(C)[C@@H]1CC[C@H](Cc2ccc(Cl)cc2)[C@@]1(O)Cn1cncn1 (racemic)				0.08 (≈ 0.24 µM)	96.5	0.4 (≈ 1.2 µM)	61.2	84	0.05 (≈ 0.15 µM)	98.3	98.7	86	100
CC(C)[C@H]1CC[C@H](Cc2ccc(Cl)cc2)[C@@]1(O)Cn1cncn1 (racemic)				0.03 (≈ 0.0899 µM)	97.5	0.4 (≈ 1.2 µM)	52.1	98	0.06 (≈ 0.18 µM)	90.7	99.6	71	100
CC(C)[C@@H]1CC[C@@H](Cc2ccc(Cl)cc2)[C@@]1(O)Cn1cncn1 (racemic)	1 (≈ 3 µM)	0.9 (≈ 2.7 µM)	0.5 (≈ 1.5 µM)		59.1		0	49		91.7	95.2	25	92
CC(C)[C@H]1CC[C@@H](Cc2ccc(Cl)cc2)[C@@]1(O)Cn1cncn1 (racemic)	0.5 (≈ 1.5 µM)	0.09 (≈ 0.27 µM)	0.04 (≈ 0.12 µM)		76.8		9.7	74		82.5	97.5	53	100
